The target in the test is T1, USP2a (Homo sapiens, UniProt O75604).
T1 sequence (O75604 1-605): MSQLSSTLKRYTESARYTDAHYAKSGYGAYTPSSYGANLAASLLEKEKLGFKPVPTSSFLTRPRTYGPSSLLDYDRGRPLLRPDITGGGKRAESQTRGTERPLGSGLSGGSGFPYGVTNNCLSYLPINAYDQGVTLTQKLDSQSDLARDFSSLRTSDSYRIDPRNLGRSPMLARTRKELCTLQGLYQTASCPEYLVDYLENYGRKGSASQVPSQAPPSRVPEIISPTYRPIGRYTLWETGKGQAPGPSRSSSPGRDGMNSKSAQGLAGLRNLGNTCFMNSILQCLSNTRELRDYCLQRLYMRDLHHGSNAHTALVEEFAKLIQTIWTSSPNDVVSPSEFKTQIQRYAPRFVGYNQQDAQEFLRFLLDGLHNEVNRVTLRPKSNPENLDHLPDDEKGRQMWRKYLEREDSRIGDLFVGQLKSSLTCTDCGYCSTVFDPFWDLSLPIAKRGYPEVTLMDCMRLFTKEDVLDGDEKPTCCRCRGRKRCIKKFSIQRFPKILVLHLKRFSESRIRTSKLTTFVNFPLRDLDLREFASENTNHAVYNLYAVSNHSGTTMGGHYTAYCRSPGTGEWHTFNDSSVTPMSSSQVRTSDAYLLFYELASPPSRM
As to the kind of experiment: ITC, Flag-USP2a. Format: binding. Set-up: host or cells: HEK293T. The text has this: Purification of Flag-tagged DDX5 (Flag-DDX5), USP2a (Flag-USP2), UbE2T (Flag-(bE2T) and topoisomerase 1 (Top1) (Flag-Top1) proteins: Flag-DDX5, Flag-USP2, Flag-UbE2T and Flag-Topl proteins were purified from the protein expression vector-transfected HEK293T cells by using the FLAG® M Purification Kit for mammalian expression systems (CELLMM2-IKT, Sigma). Briefly, sub-confluent populations of HEK293T cells were transfected with expression vectors for Flag-DDX5, Flag-USP2, Flag-UbE2T and Flag-Top1 (OriGene) using Lipofectamine 2000 (Invitrogen) as per the manufacturer's instructions. After 72h of transfection, cells were lysed in Cell Lytic M lysis reagent (Sigma Cat #C2978) containing a protease inhibitor cocktail. […]
Replacement of the Tris-HCl buffer with the PBS buffer for purified proteins for drug-protein binding analyses using isothermal titration calorimetry (ITC): After the purified proteins were eluted from the agarose resin with 3×flag peptide, the same purified protein samples from different batches were combined. […] The PBS-resuspended protein samples were recovered from the reservoir and the protein concentrations were determined using the nano-drop reader (Bio-Rad) and BCA Protein Assay (Thermo/Pierce) for double-making sure the concentration. […]
(In general: In ITC the heat of successive injections is recorded.)

One may read the Kd as the constant that tells how readily two partners part at equilibrium. For the compound `CCC1(O)C(=O)OCc2c1cc1n(c2=O)Cc2cc3cc4c(cc3nc2-1)OCO4` (stereo not shown) [FL118], binding was characterised by a dissociation constant (Kd) of 52.3 nM.
